Test results reported in patent publication US8269008B2, “Oxazolopyridine and isoxazolopyridine derivatives for use in the treatment of HIF-mediated conditions” (FibroGen, Inc., priority 2007, dated 2012).

target: T1, HIF-PH2 (EGLN1) (Homo sapiens, UniProt Q9GZT9); test: HIF-PH assay (14CO2 capture, peptide-dependent turnover); type: biochemical; conditions: Concentration 22.22 μM
T1 construct: made in house; host or cells: insect Hi5 cells
Excerpt: Ketoglutaric acid α-[1-^14C]-sodium salt, alpha-ketoglutaric acid sodium salt, and HPLC purified peptide may be obtained from commercial sources, e.g., Perkin-Elmer (Wellesley Mass.), Sigma-Aldrich, and SynPep Corp. (Dublin Calif.), respectively. Peptides for use in the assay may be fragments of HIFα as described above or as disclosed in International Publication WO 2005/118836, incorporated by reference herein. For example, a HLF peptide for use in the HIF-PH assay is [methoxycoumarin]-DLDLEALAPYIPADDDFQL-amide. HIF-PH, e.g., HIF-PH2 (EGLN1), can be expressed in, e.g., insect Hi5 cells, and partially purified, e.g., through a SP ion exchange chromatography column. Enzyme activity is determined by capturing ^14CO2 using an assay described by Kivirikko and Myllyla (1982, Methods Enzymol. 82:245-304). Assay reactions contain 50 mM HEPES (pH 7.4), 100 μM α-ketoglutaric acid sodium salt, 0.30 μCi/mL ketoglutaric acid α-[1-^14C]-sodium salt, 40 μM FeSO4, 1 mM ascorbate, 1541.8 units/mL Catalase, with or without 50 μM peptide substrate and various concentrations of compound of the invention. Reactions are initiated by addition of HIF-PH enzyme.
The peptide-dependent percent turnover is calculated by subtracting percent turnover in the absence of peptide from percent turnover in the presence of substrate peptide. Percent inhibition and IC50 are calculated using peptide-dependent percent turnover at given inhibitor concentrations. Calculation of IC50 values for each inhibitor is conducted using GraFit software (Erithacus Software Ltd., Surrey UK). […]

T1 sequence (Q9GZT9 whole entry, species assumed): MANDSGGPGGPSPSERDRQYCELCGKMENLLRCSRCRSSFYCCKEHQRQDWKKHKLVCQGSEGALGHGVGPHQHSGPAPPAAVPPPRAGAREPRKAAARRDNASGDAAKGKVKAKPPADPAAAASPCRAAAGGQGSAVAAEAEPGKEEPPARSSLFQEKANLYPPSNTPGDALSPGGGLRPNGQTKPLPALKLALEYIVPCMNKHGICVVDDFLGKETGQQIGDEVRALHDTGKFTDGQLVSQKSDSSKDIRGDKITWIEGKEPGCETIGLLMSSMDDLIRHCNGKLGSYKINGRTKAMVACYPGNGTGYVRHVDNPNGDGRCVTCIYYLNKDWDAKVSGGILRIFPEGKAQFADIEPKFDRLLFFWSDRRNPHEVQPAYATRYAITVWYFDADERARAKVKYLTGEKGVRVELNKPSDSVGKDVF

In order of falling inhibition at 22.22 µM:
1. CS(=O)(=O)c1ccc(-c2noc3cnc(C(=O)NCC(=O)O)c(O)c23)cc1 [Example 76, {[4-Hydroxy-3-(4-methanesulfonyl-phenyl)-isoxazolo[5,4-c]pyridine-5-carbonyl]-amino}-acetic acid]  99.4%
2. O=C(O)CNC(=O)c1ncc2onc(-c3ccc(Cl)cc3Cl)c2c1O [Example 75, {[3-(2,4-Dichloro-phenyl)-4-hydroxy-isoxazolo[5,4-c]pyridine-5-carbonyl]-amino}-acetic acid]  98%
3. Cc1noc2c(-c3ccccc3)nc(C(=O)NCC(=O)O)c(O)c12 [Example 71, [(4-Hydroxy-3-methyl-7-phenyl-isoxazolo[5,4-c]pyridine-5-carbonyl)-amino]-acetic acid]  97.5%
4. Cc1nc(C(=O)NCC(=O)O)c(O)c2c(-c3ccc(OC(F)(F)F)cc3)noc12 [Example 73, {[4-Hydroxy-7-methyl-3-(4-trifluoromethoxy-phenyl)-isoxazolo[5,4-c]pyridine-5-carbonyl]-amino}-acetic acid]  97.4%
5. Cc1nc(C(=O)NCC(=O)O)c(O)c2c(C)noc12 [Example 72, [(4-Hydroxy-3,7-dimethyl-isoxazolo[5,4-c]pyridine-5-carbonyl)-amino]-acetic acid]  94.6%
6. COc1ccc(-c2noc3c(C)nc(C(=O)NCC(=O)O)c(O)c23)cc1 [Example 74, {[4-Hydroxy-3-(4-methoxy-phenyl)-7-methyl-isoxazolo[5,4-c]pyridine-5-carbonyl]-amino}-acetic acid]  94.4%
